ChEMBL document CHEMBL5346905, “2,6-diazaspiro[3.4]octan-7-one derivatives as potent sigma-1 receptor antagonists that enhanced the antinociceptive effect of morphine and rescued morphine tolerance” (Eur J Med Chem, 2023)
The source made the active and inactive calls. No cut-off for these calls is given here.

How the values were obtained:
[1] = target: T1, Sigma non-opioid intracellular receptor 1 (Cavia porcellus, UniProt Q60492); assay: Displacement of [3H]-pentazocine from sigma1 receptor in guinea pig brain membrane at 1 uM by liquid scintillation counting analysis relative to control; type: cell membranes
T1 sequence (Q60492 whole entry): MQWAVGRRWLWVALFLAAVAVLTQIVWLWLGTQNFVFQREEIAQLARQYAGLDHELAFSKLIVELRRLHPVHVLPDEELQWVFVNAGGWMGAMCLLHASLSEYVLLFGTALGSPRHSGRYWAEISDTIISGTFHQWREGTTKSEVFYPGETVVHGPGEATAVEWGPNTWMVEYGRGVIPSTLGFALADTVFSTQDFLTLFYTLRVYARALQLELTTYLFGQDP

[2] = system: Mus musculus; assay: Antinociceptive activity in C57BL/6J mouse assessed as reduction in morphine-induced nociceptive response by measuring morphine ED50 at 30 mg/kg, ip pre-administered with compound followed by morphine addition measured after 30 mins by hot plate test (reference value: 4.3 mg/kg); type: functional
[3] = system: Mus musculus; assay: Reversal of morphine tolerance in morphine tolerant C57BL/6J mouse assessed as maximum possible effect of antinociception at 30 mg/kg, ip pre-treated with morphine followed by compound addition on day 4 by hot plate test (reference value: 5.4%); type: functional
[4] = system: Mus musculus; assay: Synergistic antinociceptive activity in C57BL/6J mouse assessed as reduction in morphine-induced nociceptive response upto 60 mg/kg, ip pre-administered with compound followed by morphine addition measured after 30 mins by hot plate test; type: functional, organism-based
[5] = Observed AUC(0 to infinity) in C57BL/6J mouse at 10 mg/kg, ip measured after 24 hrs by LC-MS/MS analysis; type: ADME, organism-based; parameters: time 24 hrs, dose 10 mg/kg, route ip; settings: in vivo
[6] = Drug concentration in brain of C57BL/6J mouse at 10 mg/kg, ip measured after 4 hrs by LC-MS/MS analysis; type: ADME, organism-based; settings: read-out: Drug uptake
[7] = Drug concentration in plasma of C57BL/6J mouse at 10 mg/kg, ip measured after 4 hrs by LC-MS/MS analysis; type: ADME, organism-based
[8] = Ratio of drug concentration in brain to plasma in C57BL/6J mouse at 10 mg/kg, ip measured after 1 hrs by LC-MS/MS analysis; type: ADME, organism-based; settings: read-out: BPR
[9] = Ratio of drug concentration in brain to plasma in C57BL/6J mouse at 10 mg/kg, ip measured after 4 hrs by LC-MS/MS analysis; type: ADME, organism-based; settings: read-out: BPR
[10] = AUClast in C57BL/6J mouse at 10 mg/kg, ip measured after 24 hrs by LC-MS/MS analysis; type: ADME, organism-based; parameters: time 24 hrs, dose 10 mg/kg, route ip; settings: in vivo
[11] = Drug concentration in brain of C57BL/6J mouse at 10 mg/kg, ip measured after 1 hrs by LC-MS/MS analysis; type: ADME, organism-based; settings: read-out: Drug uptake
[12] = Cmax in C57BL/6J mouse at 10 mg/kg, ip measured after 24 hrs by LC-MS/MS analysis; type: ADME, organism-based; parameters: time 24 hrs, dose 10 mg/kg, route ip; settings: in vivo
[13] = Half life in C57BL/6J mouse at 10 mg/kg, ip measured after 24 hrs by LC-MS/MS analysis; type: ADME, organism-based; settings: in vivo
[14] = Tmax in C57BL/6J mouse at 10 mg/kg, ip measured after 24 hrs by LC-MS/MS analysis; type: ADME, organism-based; settings: in vivo
[15] = target: T1, Sigma non-opioid intracellular receptor 1; assay: Displacement of [3H]-pentazocine from sigma1 receptor in guinea pig brain membrane assessed as inhibition constant in presence of phenytoin by liquid scintillation counting analysis; type: cell membranes
[16] = target: Sigma intracellular receptor 2 (Homo sapiens, UniProt Q5BJF2); assay: Antagonist activity at sigma2 receptor (unknown origin)
Sequence of Sigma intracellular receptor 2 (Q5BJF2 whole entry): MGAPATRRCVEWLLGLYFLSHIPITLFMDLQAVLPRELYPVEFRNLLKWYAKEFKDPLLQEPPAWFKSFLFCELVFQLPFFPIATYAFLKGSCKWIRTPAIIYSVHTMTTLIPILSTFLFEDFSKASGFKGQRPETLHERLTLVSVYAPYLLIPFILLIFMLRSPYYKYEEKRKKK

[17] = system: Mus musculus; assay: Antinociceptive activity in ip dosed C57BL/6J mouse assessed as reduction in morphine-induced nociceptive response pre-administered with compound followed by morphine addition measured after 30 mins by hot plate test; type: functional, organism-based; settings: dose 0-60 mg/kg
[18] = Drug concentration in plasma of C57BL/6J mouse at 10 mg/kg, ip measured after 1 hrs by LC-MS/MS analysis; type: ADME, organism-based
[19] = Observed MRT(0 to infinity) in C57BL/6J mouse at 10 mg/kg, ip measured after 24 hrs by LC-MS/MS analysis; type: ADME, organism-based; settings: in vivo
[20] = target: Mu-type opioid receptor (Homo sapiens) (UniProt P35372); assay: Displacement of [3H]-DAMGO from human MOR expressed in CHO cells at 1 uM incubated for 90 mins by beta-scintillation counting analysis; type: cell-based
Sequence of Mu-type opioid receptor (Homo sapiens) (P35372 whole entry): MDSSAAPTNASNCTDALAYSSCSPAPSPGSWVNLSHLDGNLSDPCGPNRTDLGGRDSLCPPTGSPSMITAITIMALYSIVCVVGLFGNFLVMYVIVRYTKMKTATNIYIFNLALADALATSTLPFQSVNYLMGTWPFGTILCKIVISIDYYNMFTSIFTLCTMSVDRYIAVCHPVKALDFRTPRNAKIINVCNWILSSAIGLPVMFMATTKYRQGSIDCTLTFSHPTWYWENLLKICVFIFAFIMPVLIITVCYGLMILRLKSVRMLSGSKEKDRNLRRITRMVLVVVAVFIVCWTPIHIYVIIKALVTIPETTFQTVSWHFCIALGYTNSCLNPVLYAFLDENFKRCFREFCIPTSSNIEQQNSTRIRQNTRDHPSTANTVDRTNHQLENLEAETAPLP

[21] = system: Mus musculus; assay: Synergistic antinociceptive activity in C57BL/6J mouse assessed as reduction in morphine-induced nociceptive response at 30 mg/kg, ip pre-administered with compound followed by morphine addition measured after 30 mins in presence of PRE-084 by hot plate test; type: functional, organism-based
[22] = system: Mus musculus; assay: Reversal of morphine tolerance in morphine tolerant C57BL/6J mouse assessed as maximum possible effect of antinociception at 30 mg/kg, ip pre-treated with morphine followed by compound addition on day 4 in presence of PRE-084 by hot plate test; type: functional, organism-based
[23] = system: Mus musculus; assay: Antinociceptive activity in C57BL/6J mouse assessed as reduction in nociceptive response at 30 mg/kg, ip measured after 30 mins by hot plate test; type: functional, organism-based
[24] = target: Sigma non-opioid intracellular receptor 1 (Homo sapiens, UniProt Q99720); assay: Antagonist activity at sigma1 receptor (unknown origin)
Sequence of Sigma non-opioid intracellular receptor 1 (Homo sapiens, UniProt Q99720) (Q99720 whole entry): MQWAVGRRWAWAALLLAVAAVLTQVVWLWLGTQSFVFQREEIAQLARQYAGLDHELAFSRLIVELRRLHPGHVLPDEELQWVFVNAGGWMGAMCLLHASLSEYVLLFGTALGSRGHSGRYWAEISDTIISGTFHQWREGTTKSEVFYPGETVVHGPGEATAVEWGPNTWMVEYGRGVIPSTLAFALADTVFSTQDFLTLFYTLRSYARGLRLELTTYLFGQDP

[25] = system: Mus musculus; assay: Synergistic antinociceptive activity in C57BL/6J mouse assessed as reduction in morphine-induced nociceptive response at 30 mg/kg, ip pre-administered with compound followed by morphine addition measured after 30 mins in presence of naloxone by hot plate test; type: functional, organism-based

**Q.** With `O=C1CC2(CN(CCCc3ccccc3F)C2)CN1c1ccccc1` as the compound, how does the Ki [1] read?
**A.** 44.5 nM

**Q.** For `Cc1cccc(CCN2CC3(CC(=O)N(c4ccc(F)cc4)C3)C2)c1`, which Ki [1] is on record?
**A.** 47.6 nM

**Q.** For `O=C1CC2(CN(CCCc3ccccc3)C2)CN1c1ccc(F)cc1`, which Ki [1] is on record?
**A.** 34.9 nM

**Q.** With `O=C1CC2(CN(CCC3CCCCC3)C2)CN1c1ccc(F)cc1` as the compound, how does the Ki [1] read?
**A.** 38.8 nM

**Q.** For `O=C1CC2(CN(CCc3ccc4ccccc4c3)C2)CN1c1ccccc1`, which Ki [1] is on record?
**A.** 60.4 nM

**Q.** With `Cc1cccc(CCCN2CC3(CC(=O)N(c4ccccc4)C3)C2)c1` as the compound, how does the Ki [1] read?
**A.** 33 nM

**Q.** With `O=C1CC2(CN(CCc3cccc(F)c3)C2)CN1c1ccccc1` as the compound, how does the Ki [1] read?
**A.** 393 nM

**Q.** With `CC(Cc1ccccc1)N1CC2(CC(=O)N(c3ccccc3)C2)C1` (stereo not given) as the compound, how does the Ki [1] read?
**A.** 40.5 nM

**Q.** For `O=C1CC2(CN(CCC3CCCCC3)C2)CN1c1ccccc1`, which Ki [1] is on record?
**A.** 42.7 nM

**Q.** With `O=C1CC2(CN(CCc3ccccc3)C2)CN1c1ccccc1` as the compound, how does the Ki [1] read?
**A.** 175 nM

**Q.** Which Ki [1] does the source give for `O=C1CC2(CN(CCCc3cccc(F)c3)C2)CN1c1ccccc1` here?
**A.** 26.8 nM

**Q.** Which Ki [1] does the source give for `Cc1cc(OCCN2CCOCC2)nn1-c1ccc2ccccc2c1` here?
**A.** 12.9 nM

**Q.** What about the Activity [2] of the same compound?
**A.** inactive

**Q.** What about the Activity [3] of the same compound?
**A.** inactive

**Q.** What about the Activity [4] of the same compound?
**A.** inactive

**Q.** With `O=C1CC2(CN(CCCc3ccccc3)C2)CN1c1ccccc1` as the compound, how does the Ki [1] read?
**A.** 48.7 nM

**Q.** What does the source list for `Cc1ccc(CCCN2CC3(CC(=O)N(c4ccccc4)C3)C2)cc1`?
**A.** AUC(0-inf) [5]: 2290 ng·h/mL; concentration at 4 h [6]: 609 ng/g; concentration at 4 h [7]: 78 ng/mL; Kp at 1 h [8]: 7.38; Kp at 4 h [9]: 7.8; Ki [1]: 14.5 nM; ED50 ([2]; 0.5 h): 2.3 mg/kg; MPE [3]: 70.5%; AUC(0-t) at 24 h [10]: 2240 ng·h/mL; concentration at 1 h [11]: 3790 ng/g; Cmax [12]: 990 ng/mL; half-life [13]: 85.2 min; Tmax [14]: 15 min; Ki [15]: 37.2 nM; IC50 [16]: 227 nM; Activity [17]: Dose-Dependent Effect; concentration at 1 h [18]: 513 ng/mL; MRT inf [19]: 2.08 h; Activity [20]: 16.5%; Activity [21]: inactive; Activity [22]: inactive; Activity [23]: inactive; IC50 [24]: 19.1 nM; Activity [25]: inactive

**Q.** With `O=C1CC2(CN(CCCc3ccc(F)cc3)C2)CN1c1ccccc1` as the compound, how does the Ki [1] read?
**A.** 16.8 nM

**Q.** Which Ki [1] does the source give for `O=C1CC2(CN(CCCc3ccccc3)C2)CN1Cc1ccccc1` here?
**A.** 83.7 nM

**Q.** With `Cc1cccc(N2CC3(CC2=O)CN(CCCc2ccccc2)C3)c1` as the compound, how does the Ki [1] read?
**A.** 49.7 nM

**Q.** With `Cc1ccc(N2CC3(CC2=O)CN(CCCc2ccccc2)C3)cc1` as the compound, how does the Ki [1] read?
**A.** 68.3 nM

**Q.** With `CC(Cc1ccccc1)N1CC2(CC(=O)N(c3ccc(F)cc3)C2)C1` (stereo not given) as the compound, how does the Ki [1] read?
**A.** 181 nM
